Results taken from article PMC7284870, “Antimicrobial Peptides from Rat-Tailed Maggots of the Drone Fly Eristalis tenax Show Potent Activity against Multidrug-Resistant Gram-Negative Bacteria” (Microorganisms, 2020).
Values after ≈ are worked out from the molar mass of the structure shown. Read-outs that look alike come from different tables or passages of the source. Residues, ends and D or L forms follow the SMILES beside them.

Columns and labels:
[1] = tested on: S. aureus ATCC 33592; assay type: cell-based, Staphylococcus aureus; conditions: CAMB, 18 h, 37 °C, n = 4
Procedure: (§1) The strains that were used in this study (Table 2 and Table S1) were cultivated at 37 °C in cation-adjusted Mueller–Hinton broth (CAMB) in Erlenmeyer flasks, or on the same medium with agar in Petri dishes. Exceptionally, Mycobacterium smegmatis was cultivated at 37 °C in brain heart infusion (BHI) medium that was supplemented with 1% Tween-80 in Erlenmeyer flasks, or on the same medium lacking detergent but with agar in Petri dishes. Strains listed with Robert Koch Institute (RKI) strain numbers are clinical isolates from the RKI strain collection originating from hospitalized patients in Germany. The remaining strains originated from the Sanofi strain collection and they were originally purchased from the American Type Culture Collection or the German Collection of Microorganisms and Cell Cultures. Meropenem/colistin-resistant strains were maintained, as described above, with the appropriate antibiotic added at levels below the minimal inhibitory concentration (MIC).
(§2) The MIC values were determined in 384-well microtiter plates with an assay volume of 20 µL. Immediately before each assay, the cultures of test organisms (bacteria grown for 18 h, Candida albicans and M. smegmatis grown for 48 h) were diluted with the appropriate medium to a density of 1 × 10^6 cells/mL (C. albicans), 1 × 10^5 cells/mL (M. smegmatis) or 5 × 10^5 cells per mL (other species). […] We transferred 2-µL aliquots from this dilution series to new 384-well microtiter plates while using a CyBio-Well 384-channel automated pipettor (Analytic Jena, Jena, Germany) and added 18 µL of the diluted suspension of each test species using a Viafill reagent dispenser (Integra), thus reducing the final peptide concentration 10-fold to the range 1024–0.03125 µg/mL. […] The growth of M. smegmatis was measured using the BacTiter-Glo luminescence test system (Promega, Madison, WI, USA). The growth of the other species was determined by visual inspection of the microtiter plate and turbidimetry based on the optical density at 600 nm (OD600). The MIC was defined as the peptide concentration at which no bacterial growth was observed. We supplemented the test medium with either 150 mM NaCl or 1.25 mM CaCl2 to represent monovalent and divalent cations to simulate physiological conditions.

[2] = tested on: Staphylococcus epidermidis ATCC 35984; assay type: cell-based; conditions: CAMB, 18 h, 37 °C, n = 4
Procedure: as §1, §2

[3] = tested on: Enterococcus faecium DSM 17050; assay type: cell-based; conditions: CAMB, 18 h, 37 °C, n = 4
Procedure: as §1, §2

[4] = tested on: Klebsiella pneumoniae DSM 30104; assay type: cell-based; conditions: CAMB, 18 h, 37 °C, n = 4
Procedure: as §1, §2

[5] = tested on: Staphylococcus aureus ATCC 25923; assay type: cell-based; conditions: CAMB, 18 h, 37 °C, n = 4
Procedure: as §1, §2

[6] = tested on: Proteus mirabilis DSM 4479; assay type: cell-based; conditions: CAMB, 18 h, 37 °C, n = 4
Procedure: as §1, §2

[7] = tested on: Acinetobacter baumannii ATCC 19606; assay type: cell-based; conditions: CAMB, 18 h, 37 °C, n = 4
Procedure: as §1, §2

[8] = tested on: Mycobacterium smegmatis ATCC 607; assay type: cell-based; conditions: BHI, 48 h, 37 °C, BacTiter-Glo, n = 4
Procedure: as §1, §2

[9] = tested on: Pseudomonas aeruginosa ATCC 27853; assay type: cell-based; conditions: CAMB, 18 h, 37 °C, n = 4
Procedure: as §1, §2

[10] = tested on: Listeria monocytogenes DSM 20600; assay type: cell-based; conditions: CAMB, 18 h, 37 °C, n = 4
Procedure: as §1, §2

[11] = tested on: Micrococus luteus DSM 20030; assay type: cell-based, Micrococcus luteus; conditions: CAMB, 18 h, 37 °C, n = 4
Procedure: as §1
The MIC values were determined in 384-well microtiter plates with an assay volume of 20 µL. […] The growth of M. smegmatis was measured using the BacTiter-Glo luminescence test system (Promega, Madison, WI, USA). The growth of the other species was determined by visual inspection of the microtiter plate and turbidimetry based on the optical density at 600 nm (OD600). […]

[12] = tested on: Canida albicans FH2173; assay type: cell-based, Candida albicans; conditions: CAMB, 24 h, 37 °C, n = 4
Procedure: as §1, §2

[13] = tested on: E. coli ATCC 25922
Procedure: as §1
The MIC values were determined in 384-well microtiter plates with an assay volume of 20 µL. Immediately before each assay, the cultures of test organisms (bacteria grown for 18 h, Candida albicans and M. smegmatis grown for 48 h) were diluted with the appropriate medium to a density of 1 × 10^6 cells/mL (C. albicans), 1 × 10^5 cells/mL (M. smegmatis) or 5 × 10^5 cells per mL (other species). The peptides were dissolved in sterile water at a concentration of 10.24 mg/mL and a 1:2 dilution series was prepared in a 384-well microtiter plate to achieve the concentration range 10,240–0.3125 µg/mL in a volume of 50 µL. We transferred 2-µL aliquots from this dilution series to new 384-well microtiter plates while using a CyBio-Well 384-channel automated pipettor (Analytic Jena, Jena, Germany) and added 18 µL of the diluted suspension of each test species using a Viafill reagent dispenser (Integra), thus reducing the final peptide concentration 10-fold to the range 1024–0.03125 µg/mL. The cells were incubated at 37 °C and 85% relative humidity, shaking at 180 rpm for 48 h (M. smegmatis), 24 h (C. albicans) or 18 h (other species). The growth of M. smegmatis was measured using the BacTiter-Glo luminescence test system (Promega, Madison, WI, USA). The growth of the other species was determined by visual inspection of the microtiter plate and turbidimetry based on the optical density at 600 nm (OD600). […] We supplemented the test medium with either 150 mM NaCl or 1.25 mM CaCl2 to represent monovalent and divalent cations to simulate physiological conditions.

## CC(C)C[C@@H]1NC(=O)[C@@H]2CSSC[C@@H](C(=O)N[C@@H](CCCNC(=N)N)C(=O)N[C@@H](CCCCN)C(=O)O)NC(=O)[C@H](CC(N)=O)NC(=O)[C@@H]3CSSC[C@H](NC(=O)[C@H](C)NC(=O)[C@H](C)NC(=O)[C@H](CC(=O)O)NC(=O)[C@H](CCCCN)NC(=O)[C@H](C(C)C)NC(=O)[C@H](CC(N)=O)NC(=O)[C@H](CC(C)C)NC(=O)[C@H](Cc4ccccc4)NC(=O)[C@H](CO)NC(=O)[C@H](CC(C)C)NC(=O)[C@H](CC(C)C)NC(=O)[C@H](CC(=O)O)NC(=O)[C@@H](NC(=O)[C@@H](NC(=O)[C@H](C)N)[C@@H](C)O)CSSC[C@H](NC(=O)[C@H](Cc4ccc(O)cc4)NC(=O)CNC(=O)CNC(=O)[C@H](CCCNC(=N)N)NC(=O)[C@H](Cc4ccc(O)cc4)NC(=O)CNC(=O)[C@H](CCCCN)NC(=O)[C@H](C)NC1=O)C(=O)N[C@@H](CC(=O)O)C(=O)NCC(=O)N[C@@H](CCCNC(=N)N)C(=O)N[C@@H](CCCCN)C(=O)N[C@@H](C(C)C)C(=O)N3)C(=O)N[C@@H](C)C(=O)N[C@@H](C)C(=O)N[C@@H](Cc1c[nH]cn1)C(=O)N2 [EtDef4] (HELM PEPTIDE1{A.T.C.D.L.L.S.F.L.N.V.K.D.A.A.C.A.A.H.C.L.A.K.G.Y.R.G.G.Y.C.D.G.R.K.V.C.N.C.R.K}$PEPTIDE1,PEPTIDE1,3:R3-30:R3|PEPTIDE1,PEPTIDE1,16:R3-36:R3|PEPTIDE1,PEPTIDE1,20:R3-38:R3$$$V2.0)
[1]
  MIC: 16 µg/mL (≈ 3.73 µM)
[2]
  MIC: >128 µg/mL
[3]
  MIC: >128 µg/mL
[4]
  MIC: >128 µg/mL
[5]
  MIC: 16 µg/mL (≈ 3.73 µM)
[6]
  MIC: >128 µg/mL
[7]
  MIC: >128 µg/mL
[8]
  MIC: 32 µg/mL (≈ 7.46 µM)
[9]
  MIC: >128 µg/mL
[10]
  MIC: 16 µg/mL (≈ 3.73 µM)
[11]
  MIC: 16 µg/mL (≈ 3.73 µM)
[12]
  MIC: >128 µg/mL
[13]; CAMB + A000160918 [4 µg/mL]
  MIC: 32 µg/mL
[13]; CAMB + A000161246 [4 µg/mL]
  MIC: 128 µg/mL
[13]; CAMB + A000173031A [4 µg/mL]
  MIC: 16 µg/mL
[13]; CAMB + A000173033A [4 µg/mL]
  MIC: 256 µg/mL
[13]; CAMB + A000173039A [0.25 µg/mL]
  MIC: 64 µg/mL
[13]; CAMB + A000173380A [4 µg/mL]
  MIC: 256 µg/mL
[13]; CAMB + A000498432A [4 µg/mL]
  MIC: >256 µg/mL
[13]; CAMB + A000499933A [0.0625 µg/mL]
  MIC: >256 µg/mL
[13]; CAMB + A000500059A [0.0625 µg/mL]
  MIC: >256 µg/mL
[13]; CAMB + A000500146A [0.0625 µg/mL]
  MIC: 4 µg/mL
[13]; CAMB + A000501181A [4 µg/mL]
  MIC: >256 µg/mL
[13]; CAMB + Colistin E1 [0.016 µg/mL]
  MIC: 8 µg/mL
[13]; CAMB + Colistin E2 [0.016 µg/mL]
  MIC: 2 µg/mL
[13]; CAMB + PMB [0.016 µg/mL]
  MIC: 2 µg/mL
[13]; CAMB + PMBN [4 µg/mL]
  MIC: >256 µg/mL
[13]; CAMB, 18 h, 37 °C, n = 4
  MIC: >128 µg/mL
[13]; Table 6, CAMB
  MIC: >256 µg/mL
